In patent publication US20070178152A1, “Carboxyalkylcellulose esters for administration of poorly soluble pharmaceutically active agents” (priority 2005, published 2007):
Where “and” joins values, the source holds several entries; their conditions need not be identical. Identical values can stand only once.

Key:
Format in all cases: physicochemical
[1] = Determination of % crystallinity by X-ray
Method: Determination of % Crystallinity by X-ray.
All samples were run on a Scintag PAD V diffractometer using Cu K-alpha X-ray.
For each polymer or drug used in this study a neat sample was obtained. A known weight of each species was mixed with a know weight of corundum, Al2O3, diffraction standard. Each mixture was pelletized with a hydraulic press and the XRD pattern of the pellet was measured from 5 to 45 degree scattering angle. A diffraction response factor, R, was calculated for each species according to: R=wc/ws*ls/lc where wc id the weight fraction of corundum, ws is the weight fraction of the species of interest, lc is the net intensity of the major diffraction line of corrundum and is the net intensity of the major diffraction line of the drug or in the case of the polymers, the net intensity of the maximum of the amorphous scattering curve.
Samples were pelletized with a hydraulic press and the XRD pattern of the pellet was measured from 5 to 45 degree scattering angle. The net intensity of the maximum of the amorphous scatter from the polymer, lp, and the net intensity of the major diffraction line of the drug, ld, were determined from the resulting scattering curve. The wt % crystalline drug was calculated from: % crystalline drug=(ld/Rd)/(ld/Rd+lp/Rp)×100 where Rd is the response factor for the drug and Rp is the response factor for the polymer.

[2] = Dissolution of carbamazepine and carbamazepine solid dispersions in SIFsp, pH 6.8; details: for % Drug Released / Total Drug Released: SIFsp pH 6.8, gelatin capsule; for Average % Released: carbamazepine
Method: (§1) All dissolution studies were performed on a Varian VK7025 Dissolution Apparatus equipped with a Varian VK8000 Fraction Collector
(§2) HPLC Methods for Evaluating Dissolution Aliquots:
(§3) Determination of Weight % Phenytoin, Carbamazepine, Glyburide, or Griseofulvin.
(§4) Mobile Phase: 55% acetonitrile/45% ammonium acetate buffer (2.6 g NH4OAc/L H2O with pH adjusted to pH˜5.25 with glacial acetic acid)
(§5) Column: Agilent Eclipse XDB-C8, 4.6 mm×150 mm×5 μm
(§6) Detection: UV 254 nm (UV 214 nm can also be used for phenytoin or carbamazepine, UV 291 nm can also be used for griseofulvin); typically five signals were selected from UV 214 nm, 222 nm, 254 nm, 287 nm, 291 nm, and/or 325 nm were collected for each sample.
(§7) Simulated Intestinal Fluid, without pancreatin, pH 6.8 (SIFsp, pH 6.8)—Added monobasic potassium phosphate (KH2PO4, 34 g) to a 4000-mL beaker. Added deionized/polished water (2000 mL) and mixed using a magnetic stir bar until the KH2PO4 is completely dissolved. Added 0.2 N sodium hydroxide (NaOH, 590 mL) and stirred. The pH was adjusted to pH 6.8±0.1 using 0.2 N NaOH. The sample was diluted with deionized/polished water to a final volume of 5000 mL.
(§8) The SIFsp media was heated to ˜45° C. in four 2000-mL Kimax bottles in an oven. The sample was degassed according to USP protocol by filtering through a 0.45 μm membrane filter (Pall, Supor-450, 0.45 μm, 90 mm, part # 60200, Lot # 43214) and stirring under vacuum for 5 minutes.
(§9) Dissolution Conditions #1.
(§10) Dissolution Conditions #2.
These Examples describe the dissolution of carbamazepine and carbamazepine solid dispersions by evaluating the samples described in Examples 91-99. SlFsp, pH 6.8 media preparation was described in the Materials and Methods section.
Samples were transferred into gelatin capsules (Capsugel, size OCS, Lot #624282) using a manual single capsule filler. The weight of each capsule and the amount of sample added are found in Table 17 (Capsule Description).

[3] = Dissolution of griseofulvin and griseofulvin solid dispersions (with or without surfactant) in SIFsp, pH 6.8; details: for % Drug Released / Total Drug Released: SIFsp pH 6.8, gelatin capsule, single vessel; for Average % Released: SIFsp, pH 6.8, average of runs
Method: as §1, §2, §3, §4, §5, §6, §7, §8, §9, §10
These Examples describe the dissolution of griseofulvin and griseofulvin solid dispersions by evaluating the samples described in Examples 125-134. SlFsp, pH 6.8 media preparation was described in the Materials and Methods section.
Samples were transferred into gelatin capsules (Capsugel, size 0CS, Lot # 624282) using a manual single capsule filler. The weight of each capsule and the amount of sample added are found in Table 21 and 22 (Capsule Description).
These Examples describe the impact of surfactant additives on the dissolution profiles of griseofulvin/CMCAB solid dispersions. Preparations of the griseofulvin/CMCAB, griseofulvin/CMCAB/Tween 80, and griseofulvin/CMCAB/SDS solid dispersions evaluated in this example are described in Examples 135-138. SIFsp, pH 6.8 media preparation was described in the Materials and Methods section.
Samples were transferred into gelatin capsules (Capsugel, size 00CS, Lot # 637785) using a manual single capsule filler. The weight of each capsule and the amount of sample added are found in Table 23 (Capsule Description).

Compound: COc1ccc(Cl)cc1C(=O)NCCc1ccc(S(=O)(=O)NC(=O)NC2CCCCC2)cc1 [Example 113, Glyburide]
- wt % Crystal (X-ray) ([1]; glyburide/CMCAB solid dispersions and physical blends (Table 10)): 100 wt %

Compound: NC(=O)N1c2ccccc2C=Cc2ccccc21 [Example 95, Carbamazepine]
- % Drug Released ([2]; 20 min): 33.9384% and 38.8298%
- Total Drug Released ([2]; 20 min): 9.4293 mg and 10.5423 mg
- % Drug Released ([2]; 30 min): 44.1249% and 55.2412%
- Total Drug Released ([2]; 30 min): 12.2594 mg and 14.9980 mg
- % Drug Released ([2]; 60 min): 59.6056% and 68.7527%
- Total Drug Released ([2]; 60 min): 16.5605 mg and 18.6664 mg
- % Drug Released ([2]; 120 min): 68.4090% and 79.5856%
- Total Drug Released ([2]; 120 min): 19.0064 mg and 21.6075 mg
- % Drug Released ([2]; 180 min): 67.5738% and 72.0943%
- Total Drug Released ([2]; 180 min): 18.7744 mg and 19.5736 mg
- % Drug Released ([2]; 240 min): 67.7652% and 72.6520%
- Total Drug Released ([2]; 240 min): 18.8275 mg and 19.7250 mg
- % Drug Released ([2]; 300 min): 67.6548% and 72.9162%
- Total Drug Released ([2]; 300 min): 18.7969 mg and 19.7968 mg
- % Drug Released ([2]; 360 min): 72.4305% and 71.9068%
- Total Drug Released ([2]; 360 min): 20.1237 mg and 19.5227 mg
- % Drug Released ([2]; 450 min): 67.4606% and 70.7122%
- Total Drug Released ([2]; 450 min): 18.7429 mg and 19.1984 mg
- Average % Released ([2]; SIFsp pH 6.8, 10 min): 6.7739%
- Average % Released ([2]; SIFsp pH 6.8, 20 min): 36.3841%
- Average % Released ([2]; SIFsp pH 6.8, 30 min): 49.6830%
- Average % Released ([2]; SIFsp pH 6.8, 60 min): 64.1792%
- Average % Released ([2]; SIFsp pH 6.8, 120 min): 73.9973%
- Average % Released ([2]; SIFsp pH 6.8, 180 min): 69.8341%
- Average % Released ([2]; SIFsp pH 6.8, 240 min): 70.2086%
- Average % Released ([2]; SIFsp pH 6.8, 300 min): 70.2855%
- Average % Released ([2]; SIFsp pH 6.8, 360 min): 72.1686%
- Average % Released ([2]; SIFsp pH 6.8, 450 min): 69.0864%
- wt % Crystal (X-ray) ([1]; carbamazepine/CMCAB solid dispersions and physical blends (Table 8)): 100 wt %

Compound: O=C1NC(=O)C(c2ccccc2)(c2ccccc2)N1 [Example 78, Phenytoin]
- wt % Crystal (X-ray) ([1]; phenytoin/polymer solid dispersions and physical blends (Table 6)): 100 wt %

Compound: COC1=CC(=O)C[C@@H](C)[C@]12Oc1c(Cl)c(OC)cc(OC)c1C2=O [griseofulvin, Griseofulvin]
- % Drug Released ([3]; 15 min): 39.8059% and 45.3135% and 36.6133% and 35.8167%
- Total Drug Released ([3]; 15 min): 13.1651 mg and 12.7375 mg and 12.9809 mg and 12.9579 mg
- % Drug Released ([3]; 30 min): 37.0470% and 36.5664% and 39.6132% and 46.9736%
- Total Drug Released ([3]; 30 min): 13.1347 mg and 13.2291 mg and 13.1014 mg and 13.0986 mg
- % Drug Released ([3]; 45 min): 36.6587% and 36.6412% and 39.5262% and 47.1475%
- Total Drug Released ([3]; 45 min): 12.9970 mg and 13.2561 mg and 13.0726 mg and 13.1471 mg
- % Drug Released ([3]; 60 min): 37.2839% and 36.7251% and 40.3033% and 46.5134%
- Total Drug Released ([3]; 60 min): 13.2187 mg and 13.2865 mg and 13.3296 mg and 12.9703 mg
- % Drug Released ([3]; 90 min): 36.3266% and 35.9752% and 39.8005% and 51.1520%
- Total Drug Released ([3]; 90 min): 12.8793 mg and 13.0152 mg and 13.1633 mg and 14.2638 mg
- % Drug Released ([3]; 120 min): 38.9498% and 36.7450% and 40.2775% and 47.3403%
- Total Drug Released ([3]; 120 min): 13.8093 mg and 13.2937 mg and 13.3211 mg and 13.2009 mg
- % Drug Released ([3]; 150 min): 36.6774% and 35.8335% and 39.6316% and 47.7972%
- Total Drug Released ([3]; 150 min): 13.0036 mg and 12.9639 mg and 13.1075 mg and 13.3283 mg
- % Drug Released ([3]; 180 min): 36.6068% and 35.6474% and 39.0996% and 46.7861%
- Total Drug Released ([3]; 180 min): 12.9786 mg and 12.8966 mg and 12.9315 mg and 13.0464 mg
- % Drug Released ([3]; 210 min): 37.1385% and 35.7882% and 39.5796% and 46.7393%
- Total Drug Released ([3]; 210 min): 13.1671 mg and 12.9476 mg and 13.0903 mg and 13.0333 mg
- % Drug Released ([3]; 240 min): 36.7973% and 36.6212% and 39.5780% and 46.2187%
- Total Drug Released ([3]; 240 min): 13.0461 mg and 13.2489 mg and 13.0897 mg and 12.8881 mg
- griseofulvin release profile ([3]; SIFsp pH 6.8, FIGS. 7-14, in words): rapid release
- Average % Released ([3]; 15 min): 39.3874%
- Average % Released ([3]; 30 min): 40.0500%
- Average % Released ([3]; 45 min): 39.9934%
- Average % Released ([3]; 60 min): 40.2064%
- Average % Released ([3]; 90 min): 40.8136%
- Average % Released ([3]; 120 min): 40.8282%
- Average % Released ([3]; 150 min): 39.9849%
- Average % Released ([3]; 180 min): 39.5350%
- Average % Released ([3]; 210 min): 39.8114%
- Average % Released ([3]; 240 min): 39.8038%
